# In patent US10759781B2, “Substituted guanidine derivatives” (UBE INDUSTRIES, LTD., priority 2015, dated 2020):
# Target: T1, Human VAP-1 enzyme (Homo sapiens, UniProt Q16853)
# T1 construct: purchased R&D Systems, Inc
# T1 sequence (Q16853 1-763): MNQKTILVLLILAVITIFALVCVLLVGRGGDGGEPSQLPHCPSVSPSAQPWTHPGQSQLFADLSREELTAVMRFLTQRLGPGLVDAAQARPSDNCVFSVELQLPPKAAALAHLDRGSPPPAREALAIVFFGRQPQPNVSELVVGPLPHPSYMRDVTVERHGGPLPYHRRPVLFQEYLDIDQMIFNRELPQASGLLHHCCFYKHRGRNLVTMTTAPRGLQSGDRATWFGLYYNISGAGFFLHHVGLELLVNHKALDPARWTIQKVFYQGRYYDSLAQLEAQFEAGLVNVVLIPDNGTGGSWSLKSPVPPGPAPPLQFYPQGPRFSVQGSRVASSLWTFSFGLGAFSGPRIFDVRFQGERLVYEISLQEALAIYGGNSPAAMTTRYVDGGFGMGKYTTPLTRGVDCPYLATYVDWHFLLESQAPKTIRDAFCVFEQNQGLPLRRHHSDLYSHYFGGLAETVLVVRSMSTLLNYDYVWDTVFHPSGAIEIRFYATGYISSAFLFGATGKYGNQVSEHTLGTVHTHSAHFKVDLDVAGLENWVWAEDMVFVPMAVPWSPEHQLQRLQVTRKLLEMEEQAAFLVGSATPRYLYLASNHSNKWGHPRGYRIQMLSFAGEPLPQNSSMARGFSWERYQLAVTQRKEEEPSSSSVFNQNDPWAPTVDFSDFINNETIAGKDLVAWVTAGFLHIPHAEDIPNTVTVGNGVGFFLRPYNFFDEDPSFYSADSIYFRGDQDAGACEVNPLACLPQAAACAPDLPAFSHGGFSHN
# Experiment: Human VAP-1 enzyme inhibition test
# Assay type: biochemical
# Details: 1 h; compound 30 nM; 14C-benzylamine 100 μM; read-out: inhibition ratio (human VAP-1 enzyme)
# Description: Human VAP-1 enzyme inhibition test
# This test was conducted by modifying the method of P. H. Yu et al. (Diabetologia 40 1243 (1997)). Human VAP-1 enzyme (R&D Systems, Inc.) was pre-incubated in a 96-well plate with the compound dissolved in dimethylsulfoxide at room temperature for 20 minutes. Next, in a solution to the final volume of 200 μL, the enzyme reaction solution was incubated with ^14C-benzylamine (final concentration 100 μM) at 37° C. for 1 hour. The reaction was terminated by the addition of 100 μL of 2 M citric acid solution to the reaction solution. The oxidative product was extracted using a toluene/ethyl acetate mixture and the radioactivity was measured with a liquid scintillation counter. The inhibition ratio of the compound was calculated using the following equation. Inhibition ratio={1−[VAP-1 enzyme activity after treatment with the compound]/[VAP-1 enzyme activity in the presence of dimethylsulfoxide alone without the compound]}×100
row,inhibition at 0.03 µM [%],Structure (SMILES)
1,≥ 50,"CC(=O)N1CC(ON=C2CN(c3ncc(-c4cccc(COC(=O)NC(=N)N)c4F)cn3)C2)C1 [Example 138, 3-[2-(3-{[(1-Acetylazetidin-3-yl)oxy]imino}azetidin-1-yl)pyrimidin-5-yl]-2-fluorobenzyl carbamimidoylcarbamate]"
2,≥ 50,"N=C(N)NC(=O)OCc1cccc(-c2cnc(N3CC(=NOC4CN(Cc5ccccc5)C4)C3)nc2)c1F [Example 139, 3-[2-(3-{[(1-Benzylazetidin-3-yl)oxy]imino}azetidin-1-yl)pyrimidin-5-yl]-2-fluorobenzyl carbamimidoylcarbamate]"
3,≥ 50,"N=C(N)NC(=O)OCc1cccc(-c2cnc(N3CC(=NOC4CN(CC(F)(F)F)C4)C3)nc2)c1F [Example 140, 2-Fluoro-3-{2-[3-({[1-(2,2,2-trifluoroethyl)azetidin-3-yl]oxy}imino)azetidin-1-yl]pyrimidin-5-yl}benzyl carbamimidoylcarbamate]"
4,≥ 50,"CCN1CC(ON=C2CN(c3ncc(-c4cccc(COC(=O)NC(=N)N)c4F)cn3)C2)C1 [Example 142, 3-[2-(3-{[(1-Ethylazetidin-3-yl)oxy]imino}azetidin-1-yl)pyrimidin-5-yl]-2-fluorobenzyl carbamimidoylcarbamate]"
5,≥ 50,"COC(=O)N1CC(ON=C2CN(c3ncc(-c4cccc(COC(=O)NC(=N)N)c4F)cn3)C2)C1 [Example 143, Methyl 3-[({1-[5-(3-{[(carbamimidoylcarbamoyl)oxy]methyl}-2-fluorophenyl)pyrimidin-2-yl]azetidin-3-ylidene}amino)oxy]azetidin-1-carboxylate]"
6,≥ 50,"N=C(N)NC(=O)OCc1cccc(-c2cnc(N3CC(=NOC4CN(CCO)C4)C3)nc2)c1F [Example 146, 2-Fluoro-3-{2-[3-({[1-(2-hydroxyethyl)azetidin-3-yl]oxy}imino)azetidin-1-yl]pyrimidin-5-yl}benzyl carbamimidoylcarbamate]"
7,≥ 50,"COCCN1CC(ON=C2CN(c3ncc(-c4cccc(COC(=O)NC(=N)N)c4F)cn3)C2)C1 [Example 147, 2-Fluoro-3-{2-[3-({[1-(2-methoxyethyl)azetidin-3-yl]oxy}imino)azetidin-1-yl]pyrimidin-5-yl}benzyl carbamimidoylcarbamate]"
8,≥ 50,"N=C(N)NC(=O)OCc1cccc(-c2cnc(N3CC(=NOC4CN(CCF)C4)C3)nc2)c1F [Example 148, 2-Fluoro-3-{2-[3-({[1-(2-fluoroethyl)azetidin-3-yl]oxy}imino)azetidin-1-yl]pyrimidin-5-yl}benzyl carbamimidoylcarbamate]"
9,≥ 50,"CCOC(=O)CCCON=C1CCN(c2ncc(-c3cccc(COC(=O)NC(=N)N)c3F)cn2)CC1 [Example 152, Ethyl 4-[({1-[5-(3-{[(carbamimidoylcarbamoyl)oxy]methyl}-2-fluorophenyl)pyrimidin-2-yl]piperidin-4-ylidene}amino)oxy]butanoate]"

# Further lines, the compound ahead of its results:
row,Structure (SMILES),inhibition at 0.03 µM [%]
1,"N=C(N)NC(=O)OCc1cccc(-c2cnc(N3CC(=NOCCCC(=O)O)C3)nc2)c1F [Example 115, 4-[({1-[5-(3-{[(Carbamimidoylcarbamoyl)oxy]methyl}-2-fluorophenyl)pyrimidin-2-yl]azetidin-3-ylidene}amino)oxy]butanoic acid]",≥ 50
2,"CNC(=O)CCCON=C1CN(c2ncc(-c3cccc(COC(=O)NC(=N)N)c3F)cn2)C1 [Example 116, 2-Fluoro-3-[2-(3-{[4-(methylamino)-4-oxobutoxy]imino}azetidin-1-yl)pyrimidin-5-yl]benzyl carbamimidoylcarbamate]",≥ 50
3,"CN(C)CCON=C1CN(c2ncc(-c3cccc(COC(=O)NC(=N)N)c3F)cn2)C1 [Example 117, 3-[2-(3-{[2-(Dimethylamino)ethoxy]imino}azetidin-1-yl)pyrimidin-5-yl]-2-fluorobenzyl carbamimidoylcarbamate]",≥ 50
4,"CN(CCON=C1CN(c2ncc(-c3cccc(COC(=O)NC(=N)N)c3F)cn2)C1)Cc1ccccc1 [Example 118, 3-{2-[3-({2-[Benzyl(methyl)amino]ethoxy}imino)azetidin-1-yl]pyrimidin-5-yl}-2-fluorobenzyl carbamimidoylcarbamate]",≥ 50
5,"CC(=O)NCC(CO)CON=C1CN(c2ncc(-c3cccc(COC(=O)NC(=N)N)c3F)cn2)C1 (centres unmarked) [Example 120, 3-[2-(3-{[3-Acetamido-2-(hydroxymethyl)propoxy]imino}azetidin-1-yl)pyrimidin-5-yl]-2-fluorobenzyl carbamimidoylcarbamate]",≥ 50
6,"CN(C)CC(CO)CON=C1CN(c2ncc(-c3cccc(COC(=O)NC(=N)N)c3F)cn2)C1 (centres unmarked) [Example 122, 3-[2-(3-{[3-(Dimethylamino)-2-(hydroxymethyl)propoxy]imino}azetidin-1-yl)pyrimidin-5-yl]-2-fluorobenzyl carbamimidoylcarbamate]",≥ 50
7,"COC(CNC(C)=O)CON=C1CN(c2ncc(-c3cccc(COC(=O)NC(=N)N)c3F)cn2)C1 (centres unmarked) [Example 123, 3-(2-{3-[(3-Acetamido-2-methoxypropoxy)imino]azetidin-1-yl}pyrimidin-5-yl)-2-fluorobenzyl carbamimidoylcarbamate]",≥ 50
8,"N=C(N)NC(=O)OCc1cccc(-c2cnc(N3CC(=NOCCN4CCCCC4)C3)nc2)c1F [Example 124, 2-Fluoro-3-[2-(3-{[2-(piperidin-1-yl)ethoxy]imino}azetidin-1-yl)pyrimidin-5-yl]benzyl carbamimidoylcarbamate]",≥ 50
9,"N=C(N)NC(=O)OCc1cccc(-c2cnc(N3CC(=NOCCN4CCOCC4)C3)nc2)c1F [Example 125, 2-Fluoro-3-(2-{3-[(2-morpholinoethoxy)imino]azetidin-1-yl}pyrimidin-5-yl)benzyl carbamimidoylcarbamate]",≥ 50
10,"N=C(N)NC(=O)OCc1cccc(-c2cnc(N3CC(=NOCCN4CCC4)C3)nc2)c1F [Example 126, 3-[2-(3-{[2-(Azetidin-1-yl)ethoxy]imino}azetidin-1-yl)pyrimidin-5-yl]-2-fluorobenzyl carbamimidoylcarbamate]",≥ 50
11,"N=C(N)NC(=O)OCc1cccc(-c2cnc(N3CC(=NOCCN4CC(F)C4)C3)nc2)c1F [Example 128, 2-Fluoro-3-[2-(3-{[2-(3-fluoroazetidin-1-yl)ethoxy]imino}azetidin-1-yl)pyrimidin-5-yl]benzyl carbamimidoylcarbamate]",≥ 50
12,"CN1CCOC(CON=C2CN(c3ncc(-c4cccc(COC(=O)NC(=N)N)c4F)cn3)C2)C1 (centres unmarked) [Example 130, 2-Fluoro-3-[2-(3-{[(4-methylmorpholin-2-yl)methoxy]imino}azetidin-1-yl)pyrimidin-5-yl]benzyl carbamimidoylcarbamate]",≥ 50
13,"CC(=O)N1CCOC(CON=C2CN(c3ncc(-c4cccc(COC(=O)NC(=N)N)c4F)cn3)C2)C1 (centres unmarked) [Example 131, 3-[2-(3-{[(4-Acetylmorpholin-2-yl)methoxy]imino}azetidin-1-yl)pyrimidin-5-yl]-2-fluorobenzyl carbamimidoylcarbamate]",≥ 50
14,"N=C(N)NC(=O)OCc1cccc(-c2cnc(N3CC(=NOCC4CCC(=O)O4)C3)nc2)c1F (centres unmarked) [Example 132, 2-Fluoro-3-[2-(3-{[(5-oxotetrahydrofuran-2-yl)methoxy]imino}azetidin-1-yl)pyrimidin-5-yl]benzyl carbamimidoylcarbamate]",≥ 50
15,"N=C(N)NC(=O)OCc1cccc(-c2cnc(N3CC(=NOCc4ccccc4)C3)nc2)c1F [Example 135, 3-(2-{3-[(Benzyloxy)imino]azetidin-1-yl}pyrimidin-5-yl)-2-fluorobenzyl carbamimidoylcarbamate]",≥ 50
16,"COc1ccc(CON=C2CN(c3ncc(-c4cccc(COC(=O)NC(=N)N)c4F)cn3)C2)cc1 [Example 136, 2-Fluoro-3-[2-(3-{[(4-methoxybenzyl)oxy]imino}azetidin-1-yl)pyrimidin-5-yl]benzyl carbamimidoylcarbamate]",≥ 50
17,"CN1CC(ON=C2CN(c3ncc(-c4cccc(COC(=O)NC(=N)N)c4F)cn3)C2)C1 [Example 137, 2-Fluoro-3-[2-(3-{[(1-methylazetidin-3-yl)oxy]imino}azetidin-1-yl)pyrimidin-5-yl]benzyl carbamimidoylcarbamate]",≥ 50
